The text below walks through data of patent US20240208964A1, “PYRIDOPYRIMIDINES AND METHODS OF THEIR USE” (PYRIDOPYRIMIDINES AND METHODS OF THEIR USE, priority 2020, published 2024).

Test [1] concerns FAB1 TDP-43 yeast strain. Briefly: Propidium iodide viability assay in FAB1 TDP-43 control yeast strain. The test is classed as cell-based. The following applies: for FAB1 TDP-43 (active/inactive): FAB1 TDP-43 yeast model. The source says:
(§1) Generation of TDP-43 yeast model expressing human PIKfyve. Human PIKFYVE (“entry clone”) was cloned into pAG416GPDccdB (“destination vector”) according to standard Gateway cloning protocols (Invitrogen, Life Technologies). The resulting pAG416GPD-PIKFYVE plasmids were amplified in E. coli and plasmid identity confirmed by restriction digest and Sanger sequencing. Lithium acetate/polyethylene glycol-based transformation was used to introduce the above PIKFYVE plasmid into a BY4741 yeast strain auxotrophic for the ura3 gene and deleted for two transcription factors that regulate the xenobiotic efflux pumps, a major efflux pump, and FAB1, the yeast ortholog of PIKFYVE (MATa, snq2::KILeu2; pdr3::Klura3;pdrl::NATMX; fab1::G418^R, his3;leu2;ura3;met15;LYS2+) (FIG. 2). Transformed yeast were plated on solid agar plates with complete synthetic media lacking uracil (CSM-ura) and containing 2% glucose. Individual colonies harboring the control or PIKFYVE TDP-43 plasmids were recovered. A plasmid containing wild-type TDP-43 under the transcriptional control of the GAL1 promoter and containing the hygromycin-resistance gene as a selectable marker was transformed into the fab1::G418^R pAG416GPD-PIKFYVE yeast strain (FIG. 1). Transformed yeast were plated on CSM-ura containing 2% glucose and 200 μg/mL […] after overnight recovery in media lacking antibiotic. Multiple independent isolates were further evaluated for cytotoxicity and TDP-43 expression levels.
(§2) Viability Assay. A control yeast strain with the wild-type yeast FAB1 gene and TDP-43 (“FAB1 TDP-43”, carries empty pAG416 plasmid), and the “PIKFYVE TDP-43” yeast strain, were assessed for toxicity using a propidium iodide viability assay. Both yeast strains were transferred from solid CSM-ura/2% glucose agar plates into 3 mL of liquid CSM-ura/2% glucose media for 6-8 hours at 30° C. with aeration. Yeast cultures were then diluted to an optical density at 600 nm wavelength (OD600) of 0.005 in 3 mL of CSM-ura/2% raffinose and grown overnight at 30° C. with aeration to an OD600 of 0.3-0.8. Log-phase overnight cultures were diluted to OD600 of 0.005 in CSM-ura containing either 2% raffinose or galactose and 150 μL dispensed into each well of a flat bottom 96-well plates. Compounds formulated in 100% dimethyl sulfoxide (DMSO) were serially diluted in DMSO and 1.5 μL diluted compound transferred to the 96-well plates using a multichannel pipet. Wells containing DMSO alone were also evaluated as controls for compound effects. Tested concentrations ranged from 15 μM to 0.11 μM. Cultures were immediately mixed to ensure compound distribution and covered plates incubated at 30° C. for 24 hours in a stationary, humified incubator.
(§3) Upon the completion of incubation, cultures were assayed for viability using propidium iodide (PI) to stain for dead/dying cells. A working solution of PI was made where, for each plate, 1 μL of 10 mM PI was added to 10 mL of CSM-ura (raffinose or galactose). The final PI solution (50 μL/well) was dispensed into each well of a new round bottom 96-well plate. The overnight 96-well assay plate was then mixed with a multichannel pipet and 50 μL transferred to the PI-containing plate. This plate was then incubated for 30 minutes at 30° C. in the dark. A benchtop flow cytometer (Miltenyi MACSquant) was then used to assess red fluorescence (B2 channel), forward scatter, and side scatter (with following settings: gentle mix, high flow rate, fast measurement, 10,000 events). Intensity histograms were then gated for “PI-positive” or “PI-negative” using the raffinose and galactose cultures treated with DMSO as controls. The DMSO controls for raffinose or galactose-containing cultures were used to determine the window of increased cell death and this difference set to 100. All compounds were similarly gated and then compared to this maximal window to establish the percent reduction in PI-positive cells.

The test system of test [2] is PIKFYVE TDP-43 yeast strain. Briefly: Propidium iodide viability assay in PIKFYVE TDP-43 yeast strain. The following applies: for PIKfyve TDP-43 (active/inactive): PIKFYVE TDP-43 yeast model. In kind it is cell-based.
Text: as §1, §2, §3

Test [3] addresses full-length human PIKFYVE (GST-PIKFYVE) (Homo sapiens (Human), UniProt Q9Y2I7, L932S/Q1183K/Q995L/S1033A/S696N/T998S). The test is described as follows: PIKfyve biochemical assay (ADP-Glo Kinase assay, Carna Biosciences). Particulars: ADP-Glo, full-length human PIKFYVE; read-out: hPIKfyve IC50. An excerpt: PIKfyve Biochemical Assay. The biochemical PIKFyve inhibition assays were run by Carna Biosciences according to proprietary methodology based on the Promega ADP-Glo™ Kinase assay. A full-length human PIKFYVE [1-2098(end) amino acids and S696N, L932S, Q995L, T998S, S1033A and Q1183K of the protein having the sequence set forth in NCBI Reference Sequence No. NP_055855.2] was expressed as N-terminal GST-fusion protein (265 kDa) using baculovirus expression system. GST-PIKFYVE was purified by using glutathione sepharose chromatography and used in an ADP-Glo™ Kinase assay (Promega). Reactions were set up by adding the test compound solution, substrate solution, ATP solution and kinase solution, each at 4× final concentrations. Reactions were prepared with assay buffer (50 mM MOPS, 1 mM DTT, pH7.2), mixed, and incubated in black 384 well polystyrene plates for 1 hour at room temperature. ADP-Glo™ reagent was then added for 40 minutes, followed by kinase detection reagent for an additional 40 minutes. The kinase activity was evaluated by detecting relative light units on a luminescence plate reader. Samples were run in duplicate from 10 μM to 3 nM. […] IC50 values were calculated from concentration vs % inhibition curves by fitting to a four-parameter logistic curve.
The biochemical PIKFyve inhibition assays were run by Carna Biosciences according to proprietary methodology based on the Promega ADP-Glo™ Kinase assay. A full-length human PIKFYVE [1-2098(end) amino acids and S696N, L932S, Q995L, T998S, S1033A and Q1183K of accession number NP_055855.2] was expressed as N-terminal GST-fusion protein (265 kDa) using baculovirus expression system. GST-PIKFYVE was purified by using glutathione sepharose chromatography and used in an ADP-Glo™ Kinase assay (Promega).
Reactions were set up by adding the test compound solution, substrate solution, ATP solution and kinase solution, each at 4× final concentrations. Reactions were prepared with assay buffer (50 mM MOPS, 1 mM DTT, pH7.2), mixed, and incubated in black 384 well polystyrene plates for 1 hour at room temperature. ADP-Glo™ reagent was then added for 40 minutes, followed by kinase detection reagent for an additional 40 minutes. The kinase activity was evaluated by detecting relative light units on a luminescence plate reader. Samples were run in duplicate from 10 uM to 3 nM. […] IC50 values were calculated from concentration vs % inhibition curves by fitting to a four-parameter logistic curve.

The target of test [4] is PIKfyve (PIKFYVE-NanoLuc fusion in HEK293 cells) (Homo sapiens (Human), UniProt Q9Y2I7). Briefly: NanoBRET TE Intracellular Kinase Assay, K-8 (Promega) cell-based assay. The following applies: 2 hours, read-out: hPIKfyve BRET IC50. The procedure:
NanoBRET™ TE Intracellular Kinase Assay, K-8 (Promega) Cell-Based Assay. Intracellular inhibition of PIKfyve was assayed using Promega's NanoBRET™ TE Intracellular Kinase Assay, K-8 according to manufacturer's instructions. A dilution series of test compounds was added for 2 hours to HEK293 cells transfected for a minimum of 20 hours with PIKFYVE-NanoLuc® Fusion Vector (Promega) containing a full-length PIKfyve according to manufacturer's specifications in a 96-well plate. Kinase activity was detected by addition of a NanoBRET™ tracer reagent, which was a proprietary PIKfyve inhibitor appended to a fluorescent probe (BRET, bioluminescence resonance energy transfer). Test compounds were tested at concentrations of 10, 3, 1, 0.3, 0.1, 0.03, 0.01, 0.003 μM. BRET signals were measured by a GloMax®Discover Multimode Microplate Reader (Promega) using 0.3 sec/well integration time, 450BP donor filter and 600LP acceptor filters. Active test compounds that bound PIKfyve and displaced the tracer reduced BRET signal. IC50 values were then calculated by fitting the data to the normalized BRET ratio.
In general terms: In BRET a luciferase serves as donor, and the signal depends on an acceptor being close.

Molecules are shown by their SMILES.

Sequence of PIKfyve (PIKFYVE-NanoLuc fusion in HEK293 cells) (Q9Y2I7 whole entry, the tested form may be a part): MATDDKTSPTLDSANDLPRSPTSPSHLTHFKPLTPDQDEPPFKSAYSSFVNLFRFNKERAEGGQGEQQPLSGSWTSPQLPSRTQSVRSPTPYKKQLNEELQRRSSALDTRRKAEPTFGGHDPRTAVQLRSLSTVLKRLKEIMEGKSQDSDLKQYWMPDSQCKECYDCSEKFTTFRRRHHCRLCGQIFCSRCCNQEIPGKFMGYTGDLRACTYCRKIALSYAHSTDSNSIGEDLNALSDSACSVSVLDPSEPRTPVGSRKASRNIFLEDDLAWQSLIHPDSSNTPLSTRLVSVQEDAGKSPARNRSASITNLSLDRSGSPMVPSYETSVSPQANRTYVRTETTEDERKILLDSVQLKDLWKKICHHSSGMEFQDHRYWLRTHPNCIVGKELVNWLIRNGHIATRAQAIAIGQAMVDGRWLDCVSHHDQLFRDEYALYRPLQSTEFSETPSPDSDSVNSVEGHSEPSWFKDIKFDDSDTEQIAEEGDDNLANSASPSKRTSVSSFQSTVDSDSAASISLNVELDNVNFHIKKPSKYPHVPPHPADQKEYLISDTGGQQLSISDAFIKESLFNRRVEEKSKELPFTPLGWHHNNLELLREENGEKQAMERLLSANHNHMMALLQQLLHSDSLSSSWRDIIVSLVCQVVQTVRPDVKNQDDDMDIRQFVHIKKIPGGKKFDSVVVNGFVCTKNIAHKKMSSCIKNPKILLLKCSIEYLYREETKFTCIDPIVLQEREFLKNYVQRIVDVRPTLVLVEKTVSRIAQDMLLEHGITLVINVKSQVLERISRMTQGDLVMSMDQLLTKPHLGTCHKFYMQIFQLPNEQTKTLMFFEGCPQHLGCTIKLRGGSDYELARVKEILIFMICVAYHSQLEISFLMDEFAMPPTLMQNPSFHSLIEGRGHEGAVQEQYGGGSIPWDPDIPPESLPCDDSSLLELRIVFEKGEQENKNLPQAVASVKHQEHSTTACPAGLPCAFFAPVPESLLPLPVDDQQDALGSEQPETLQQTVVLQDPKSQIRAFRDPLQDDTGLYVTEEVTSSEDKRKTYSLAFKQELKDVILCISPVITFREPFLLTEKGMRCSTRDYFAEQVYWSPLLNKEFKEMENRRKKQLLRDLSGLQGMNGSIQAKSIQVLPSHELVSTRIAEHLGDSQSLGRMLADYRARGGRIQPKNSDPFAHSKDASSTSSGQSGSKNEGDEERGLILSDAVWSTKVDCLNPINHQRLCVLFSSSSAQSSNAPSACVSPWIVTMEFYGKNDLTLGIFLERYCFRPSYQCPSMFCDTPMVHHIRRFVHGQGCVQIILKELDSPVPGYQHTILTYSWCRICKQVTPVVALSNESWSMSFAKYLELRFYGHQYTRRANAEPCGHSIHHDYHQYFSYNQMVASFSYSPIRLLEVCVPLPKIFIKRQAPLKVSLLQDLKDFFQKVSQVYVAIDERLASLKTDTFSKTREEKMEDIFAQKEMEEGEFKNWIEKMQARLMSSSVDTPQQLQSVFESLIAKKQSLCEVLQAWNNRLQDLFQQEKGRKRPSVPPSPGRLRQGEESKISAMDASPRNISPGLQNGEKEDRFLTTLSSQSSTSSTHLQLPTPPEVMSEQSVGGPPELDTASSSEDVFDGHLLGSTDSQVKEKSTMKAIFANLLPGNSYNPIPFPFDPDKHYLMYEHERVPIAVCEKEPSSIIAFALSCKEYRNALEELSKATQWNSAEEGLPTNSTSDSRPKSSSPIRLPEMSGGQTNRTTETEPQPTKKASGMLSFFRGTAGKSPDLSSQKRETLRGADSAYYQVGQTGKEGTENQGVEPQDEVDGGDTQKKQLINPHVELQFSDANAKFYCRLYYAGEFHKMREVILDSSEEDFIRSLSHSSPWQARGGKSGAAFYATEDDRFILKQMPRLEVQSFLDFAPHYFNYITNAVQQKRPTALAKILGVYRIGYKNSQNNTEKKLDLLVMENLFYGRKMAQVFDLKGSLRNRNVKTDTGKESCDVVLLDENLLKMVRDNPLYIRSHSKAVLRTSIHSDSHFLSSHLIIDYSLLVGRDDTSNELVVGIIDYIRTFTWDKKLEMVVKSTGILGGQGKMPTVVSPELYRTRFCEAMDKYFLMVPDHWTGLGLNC
Sequence of full-length human PIKFYVE (GST-PIKFYVE) (Q9Y2I7 whole entry S696N/L932S/Q995L/T998S/S1033A/Q1183K, the tested form may be a part): as the sequence (Q9Y2I7 whole entry, the tested form may be a part) above, with S696N, L932S, Q995L, T998S, S1033A, Q1183K counted along it

As to `Cc1cccc(/C=N/Nc2cc(N3CC4CC3CO4)n3nc(-c4ccncc4)cc3n2)c1` (centres unmarked), the “FAB1 TDP-43 (active/inactive)” value in test [1] is “Inactive”. Further, in test [2], the “PIKfyve TDP-43 (active/inactive)” value is on record as “Active”.

For the compound `Cn1c(-c2ccncc2)nc2c(N3CCOCC3)ncnc21`, the “FAB1 TDP-43 (active/inactive)” value in test [1] is listed as “Inactive”. The “PIKfyve TDP-43 (active/inactive)” value in test [2] was “Inactive”.

Consider `CN(C)c1cc(N2CCOCC2)n2nc(-c3ccncc3)cc2n1`, for which, in test [1], the “FAB1 TDP-43 (active/inactive)” value was “Inactive”. In addition, the “PIKfyve TDP-43 (active/inactive)” value in test [2] is recorded as “Inactive”.

Regarding `N#Cc1cc(N2CCOCC2)n2nc(-c3ccncc3)cc2n1`, the “FAB1 TDP-43 (active/inactive)” value in test [1] is “Inactive”. Besides, the “PIKfyve TDP-43 (active/inactive)” value in test [2] is on record as “Inactive”.

`Cc1cccc(/C=N/Nc2cc(N3CCOCC3)n3nc(-c4ccncc4)cc3n2)c1` [APY0201, reference compound]: the “viable cells in FAB1 TDP-43” value in test [1] (range of compound concentrations (only 0.23 μM is shown), FIG. 5) is on record as “no increase in viable cells”. Also, the “propidium iodide-positive dead cells in PIKFYVE TDP-43” value in test [2] (0.23 μM, FIG. 6) is “reduced the population of propidium iodide-positive dead cells”.

As usually defined, the IC50 is the concentration that gives 50% inhibition. `c1ccc(-c2ccn(-c3nc(N4CCOCC4)c4ncc(C5CCOCC5)cc4n3)n2)cc1` [compound 20, 4-[2-(3-phenylpyrazol-1-yl)-7-tetrahydropyran-4-yl-pyrido[3,2-d]pyrimidin-4-yl]morpholine]: the values for the IC50 in test [3] and in test [4] were 10 to 100 nM and 100 to 1000 nM, respectively.

For the compound `C1=C(c2cnc3c(N4CCOCC4)nc(-n4ccc(-c5ccccc5)n4)nc3c2)CCOC1` [compound 21, 4-(7-(3,6-dihydro-2H-pyran-4-yl)-2-(3-phenyl-1H-pyrazol-1-yl)pyrido[3,2-d]pyrimidin-4-yl)morpholine], the IC50 in test [3] and in test [4] was 10 to 100 nM throughout.

In the case of `c1ccc(-c2ccn(-c3nc(N4CCOCC4)c4ncc(C5CCCO5)cc4n3)n2)cc1` (centres unmarked) [compound 22, 4-(2-(3-phenyl-1H-pyrazol-1-yl)-7-(tetrahydrofuran-2-yl)pyrido[3,2-d]pyrimidin-4-yl)morpholine], the values for the IC50 in test [3] and in test [4] were 10 to 100 nM and 100 to 1000 nM, respectively.

Regarding `Cc1cccc(/C=N/Nc2nc(N3CCOCC3)c3ncccc3n2)c1` [compound 24, (E)-4-(2-(2-(3-methylbenzylidene)hydrazinyl)pyrido[3,2-d]pyrimidin-4-yl)morpholine], the concentration for half-maximal inhibition (IC50) in test [3] and in test [4] was 10 to 100 nM in each case.

Consider `Cc1cccc(-c2cc(O)n(-c3nc(N4CCOCC4)c4ncccc4n3)n2)c1` [compound 26, 1-(4-morpholinopyrido[3,2-d]pyrimidin-2-yl)-3-m-tolyl-1H-pyrazol-5-ol], for which the IC50 fell in the range of 10 to 100 nM in test [3] and 100 to 1000 nM in test [4].

`c1ccc(-c2nccc(-c3nc(N4CCOCC4)c4ncccc4n3)n2)cc1` [compound 39, 4-(2-(2-phenylpyrimidin-4-yl)pyrido[3,2-d]pyrimidin-4-yl)morpholine]: the IC50 in test [3] is less than 10 nM; in test [4], 100 to 1000 nM.

Turning to `c1ccc(Nc2nc(N3CCOCC3)c3ncc(Cc4cccnc4)cc3n2)cc1` [compound 79], the concentration for half-maximal inhibition (IC50) in test [3] and in test [4] was 100 to 1000 nM throughout.

In the case of `Cc1cccc(/C=N/Nc2nc(N3CCOCC3)c3ncc(Cc4cccnc4)cc3n2)c1` [compound 80], the half-inhibitory concentration (IC50) in test [3] and in test [4] was 10 to 100 nM in each case.

`Cc1cccc(-c2cc(O)n(-c3nc(N4CCOCC4)c4ncc(Cc5cccnc5)cc4n3)n2)c1` [compound 81]: the concentration for half-maximal inhibition (IC50) in test [3] was in the range of 10 to 100 nM; in test [4] it was 100 to 1000 nM.

In the case of `Cc1cccc(/C=N/Nc2cc(N3CCOCC3)n3nc(-c4ccncc4)cc3n2)c1` [drawing 292], the “FAB1 TDP-43 (active/inactive)” value in test [1] is given as “Inactive”. The “PIKfyve TDP-43 (active/inactive)” value in test [2] is given as “Active”.

On to `Cc1cccc(/C=N/Nc2nc(N3CCOCC3)c3nc(-c4ccncc4)n(C)c3n2)c1` [drawing 294], for which the “FAB1 TDP-43 (active/inactive)” value in test [1] is given as “Inactive”. The “PIKfyve TDP-43 (active/inactive)” value in test [2] is reported as “Active”.
